Literature values in patent publication US20120237456A1, “ORAL COMPOSITIONS CONTAINING EXTRACTS OF GARCINIA MANGOSTANA L. AND RELATED METHODS” (Colgate-Palmolive Company, priority 2009, published 2012).

Legend:
cAMP phosphodiesterase = conditions: reported by Chairungsrilerd and Takeuchi et al., 1996
DNA topoisomerase = conditions: Tosa et al., 1997
[1] = compared with BHA and a-tocopherol (vitamin E); Yoshikawa et al., 1994; Fan and Su, 1997
COX 1 = COX 1 (Homo sapiens, UniProt P23219); conditions: Nakatani et al., 2002 and 2004
Sequence of COX 1 (P23219 24-599): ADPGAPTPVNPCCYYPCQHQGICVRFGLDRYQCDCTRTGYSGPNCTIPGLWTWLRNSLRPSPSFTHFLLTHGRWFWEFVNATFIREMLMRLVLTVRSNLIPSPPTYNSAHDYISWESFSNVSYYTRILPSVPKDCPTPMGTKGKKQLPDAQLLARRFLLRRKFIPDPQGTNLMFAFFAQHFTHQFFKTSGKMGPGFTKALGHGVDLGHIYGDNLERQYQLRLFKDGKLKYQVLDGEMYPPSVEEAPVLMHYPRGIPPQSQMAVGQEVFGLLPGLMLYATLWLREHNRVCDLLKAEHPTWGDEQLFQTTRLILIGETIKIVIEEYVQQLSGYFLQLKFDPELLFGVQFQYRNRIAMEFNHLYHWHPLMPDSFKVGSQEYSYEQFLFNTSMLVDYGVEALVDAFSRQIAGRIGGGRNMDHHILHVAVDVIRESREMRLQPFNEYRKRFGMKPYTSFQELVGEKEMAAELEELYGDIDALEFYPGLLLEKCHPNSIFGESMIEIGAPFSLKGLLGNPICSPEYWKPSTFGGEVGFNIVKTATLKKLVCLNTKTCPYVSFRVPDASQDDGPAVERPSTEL

serotonin receptors = conditions: Chairungsrilerd, Furukawa et al., 1996 and 1998

Row | SMILES | inhibition of cAMP phosphodiesterase (cAMP phosphodiesterase) | inhibition of DNA topoisomerase (DNA topoisomerase) | antioxidative activity [1] | inhibition of the activity of cyclooxygenase COX 1 (COX 1) | antagonism of serotonin receptors (serotonin receptors)
1 | COc1c(O)cc2oc3cc4c(c(O)c3c(=O)c2c1CC=C(C)C)CC(O)C(C)(C)O4 (centres unmarked) [Mangostanol] | strong inhibition |  |  |  | 
2 | CC(C)=CCc1c(O)cc2oc3cc(O)c(O)c(CC=C(C)C)c3c(=O)c2c1O [γ-mangostin] |  | inhibit | more potent antioxidative activity than BHA | directly inhibit | antagonist
